Legend:
[1] = Absorption rate constant in epithelial lining fluid of Swiss-Webster mouse infected with Pseudomonas aeruginosa at 200 mg/kg, ip administered as single dose; assay type: ADME, organism-based; parameters: dose 200 mg/kg, route intraperitoneal; conditions: in vivo
[2] = Drug uptake in epithelial lining fluid of Swiss-Webster mouse infected with Pseudomonas aeruginosa at 200 mg/kg, ip administered as single dose; assay type: ADME, organism-based; parameters: dose 200 mg/kg, route intraperitoneal; conditions: in vivo
[3] = AUC in epithelial lining fluid of Swiss-Webster mouse infected with Pseudomonas aeruginosa at 200 mg/kg, ip administered as single dose; assay type: ADME, organism-based; parameters: dose 200 mg/kg, route intraperitoneal
[4] = Volume of distribution in epithelial lining fluid of Swiss-Webster mouse infected with Pseudomonas aeruginosa at 200 mg/kg, ip administered as single dose; assay type: ADME, organism-based; parameters: dose 200 mg/kg, route intraperitoneal; conditions: in vivo
[5] = Apparent volume of distribution with respect to bioavailability in epithelial lining fluid of Swiss-Webster mouse infected with Pseudomonas aeruginosa at 200 mg/kg, ip administered as single dose; assay type: ADME, organism-based; conditions: read-out: Vc/F
[6] = AUC in plasma of Swiss-Webster mouse infected with Pseudomonas aeruginosa at 200 mg/kg, ip administered as single dose; assay type: ADME, organism-based; parameters: dose 200 mg/kg, route intraperitoneal
[7] = Apparent clearance in epithelial lining fluid of Swiss-Webster mouse infected with Pseudomonas aeruginosa at 200 mg/kg, ip administered as single dose
[8] = test system: Pseudomonas aeruginosa; experiment: Antimicrobial activity against Pseudomonas aeruginosa infected in Swiss-Webster mouse at 200 mg/kg, ip administered as single dose; assay type: functional, organism-based; parameters: dose 200 mg/kg, route intraperitoneal

- Ka [1]: 7.81 h⁻¹
- Drug uptake [2]: 77.7%
- AUC [3]: 49800 ng·h/mL
- Vd [4]: 0.024 L
- Vd/F [5]: 0.044 L
- AUC [6]: 64000 ng·h/mL
- CL/F [7]: 1.3 mL/min
- EC50 [8]: 3.15 µg/mL
SMILES: C[C@H]1COc2c(N3CCN(C)CC3)c(F)cc3c(=O)c(C(=O)O)cn1c23.C[C@H]1COc2c(N3CCN(C)CC3)c(F)cc3c(=O)c(C(=O)O)cn1c23.O [LEVOFLOXACIN]

Reference: ChEMBL document CHEMBL1649474, “Pharmacodynamics of levofloxacin in a murine pneumonia model of Pseudomonas aeruginosa infection: determination of epithelial lining fluid targets” (Antimicrob Agents Chemother, 2009)
